Data set [1] is described as follows: Metabolite profiling and identification in human hepatocytes. More on the design: key to Source (peak identified in human hepatocytes): R = Rat; hr = Human; lowercase letter indicates low abundance; h: lowercase letter indicates low abundance. Conditions: for Percent Distribution (1 hr incubation) Human / Percent Distribution (2 hr incubation) Human: relative abundance among metabolites of the parent (1 μM), equal LC/MS sensitivity assumed. The format is in vitro ADME. As to the method: (§1) Cryopreserved hepatocytes were grown in culture and incubations were performed to generate samples to measure the formation of FTY720-C2 and FTY720-Mitoxy metabolites. Incubations of 1 mL medium containing 1 million cells and 1 μM of FTY720-C2 and FTY720-Mitoxy were conducted at 37° C in a 5% CO2 incubator for 0, 1 and 2 hr, with gentle shaking. Positive control incubations used a cocktail solution containing 10 μM testosterone and 10 μM diclofenac performed for 0, 1 and 2 hr, under similar conditions to confirm the metabolic activity of the hepatocytes. The reactions were terminated by adding 2 mL acetonitrile containing 0.02% formic acid, and thoroughly mixing with gentle vortexing. Samples were transferred into 6 mL vials and stored in the freezer (-70°C) overnight for protein precipitation. Following overnight precipitations, samples were centrifuged at 3,000 rpm for 10 min to pellet proteins. Supernatants were transferred into clean 6 mL vials and evaporated to dryness using a TurboVap concentrator system. Samples were reconstituted using 600 μL 20% acetonitrile in water, briefly vortexed to resuspend, then aliquoted for LC-MS/MS analysis. Controls incubations also included “No drug control” and “no cell control” samples treated in a similar manner as test article samples.
(§2) Metabolite profiling and identification experiments were conducted by LC-MS/MS, composed of an HPLC system consisting of an Agilent Technologies 1200 Series Model G1322A Degasser, Agilent Technologies 1200 Series Model G1312A Binary Pump, Shimadzu HTc autosampler, and Valco Model E60 Flow Diversion Valve, and coupled to an API 4000 mass spectrometer. Separations were accomplished on a Gemini C18 column (150 × 2.0 mm, 5-μm particles; Phenomenex Inc., Torrance, CA), preceded by a SecurityGuard C18 guard column (4.0 × 2.0 mm; Phenomenex Inc.). A two-component mobile phase, consisted of a linear gradient of water containing 0.5% formic acid (v/v) and methanol:acetonitrile (1:1, v/v) containing 0.5% formic acid (v/v), was pumped at 0.3 mL/min. The first 4 min of flow was diverted away from the mass spectrometer. Analysis of the positive control samples was conducted with an HPLC system consisting of two Shimadzu LC-10ATvp pumps and a LEAP Pal autosampler. Separations were accomplished on a Luna C8(2) column (50 × 2.0 mm, 3-μm particles; Phenomenex Inc., Torrance, CA), preceded by a SecurityGuard C18 column (4.0 × 2.0 mm; Phenomenex Inc.). Separation was accomplished with a gradient of water containing 0.2% formic acid and 0.012% NH4OH (v/v) versus acetonitrile at an initial rate of 0.7 mL/min. An API 4000 QTrap mass spectrometer (AB Sciex, Foster City, CA) was used for analysis of positive control samples. Each mass spectrometer used was equipped with an electrospray ionization source and operated in the positive ionization mode. Metabolite identification experiments were performed by recording full scan mass spectral data (Q1MS) for all samples, and selected samples were analyzed to obtain product ion spectra (MS/MS) of test article metabolites identified in the full scan mass spectral data.

Data set [2] is described as follows: Metabolite profiling and identification in rat hepatocytes. The data set is classed as in vitro ADME, rat (Sprague Dawley). Also noted: key to Source (peak identified in rat hepatocytes): R = Rat; hr = Human; lowercase letter indicates low abundance; h: lowercase letter indicates low abundance. Conditions: for Percent Distribution (1 hr incubation) Rat / Percent Distribution (2 hr incubation) Rat: relative abundance among metabolites of the parent (1 μM), equal LC/MS sensitivity assumed. On the procedure: as §1, §2

The nature of data set [3]: Metabolic stability (intrinsic clearance) in rat liver microsomes. Conditions: rat liver microsomes. The format is in vitro ADME, rat (Sprague-Dawley). As to the method:
(§3) Liver microsomal incubations contained 0.1mg/mL microsomal proteins and 1 μM of FTY720-C2 or FTY720-Mitoxy in 100 mM potassium phosphate buffer (pH 7.4) ± an NADPH regenerating system (3.5 mM glucose 6-phosphate, 1.3 mM NADP^+, and 0.4 units/mL glucose-6-phosphate dehydrogenase). Following incubations, reactions were terminated for analysis after 0, 10, 20, 30, and 60 min by the addition of acetonitrile containing C17 sphingosine (300 ng/mL) as the internal standard. Samples were vigorously mixed and centrifuged at 3,400 rpm for 10 min to pellet precipitated proteins. An aliquot of each supernatant was used for LC/MS analysis, for determination of the remaining FTY720-C2 and FTY720-Mitoxy. Similar incubations were performed using a cocktail solution containing 0.2 μM midazolam and 1 μM diclofenac to determine the metabolic activity of the microsomes as an additional control.
(§4) Samples resulting from liver microsomal incubations were analyzed by LC-MS/MS. Aliquots of the supernatants were injected onto an X-Bridge C18 column (2.1 × 50 mm, 3.5-μm particles) (Waters, Milford, MA), preceded by a SecurityGuard C18 guard column (4.0 × 2.0 mm; Phenomenex Inc.). Separations were accomplished with a gradient of 0.1% acetic acid in water (v/v) versus 0.1% acetic acid in acetonitrile: methanol (75:25, v/v) at a rate of 0.8 mL/min. The eluents were further applied into an equipped API 4000 QTrap mass spectrometer (AB Sciex, Foster City, CA) with electrospray ionization (ESI) interface by two coupled LC-10 AT pumps. Peak area ratios of FTY720-C2 or FTY720-Mitoxy against the C17 sphingosine internal standard were used to determine the amount of parent remaining compared to that at 0 min. The percent of FTY720-C2 or FTY720-Mitoxy remaining was calculated by dividing the peak area ratio obtained at each time point by that obtained at 0 min. The in vitro intrinsic clearance (CLint) was calculated by linear regression of the log percent of compound remaining versus time plots using Microsoft Excel, two independent experiments (n = 2) were performed for each compound and species. Then, the mean and standard deviation (SD), of two values for each condition, were calculated using Microsoft Excel with the “AVERAGE” and “STDEV” functions, respectively.
In general terms: Liver microsomes are a subcellular fraction often used to study metabolism.

The conditions of data set [4]: human, cited from earlier work.
A short description of data set [5]: Metabolic stability (intrinsic clearance) in monkey liver microsomes. The format is in vitro ADME, monkey (Cynomolgus). The conditions noted are these: monkey liver microsomes. On the procedure: as §3, §4
Data set [6] can be described thus: Metabolic stability (intrinsic clearance) in human liver microsomes. The data set is classed as in vitro ADME. On the procedure: as §3, §4
Data set [7] can be described thus: Metabolic stability (intrinsic clearance) in mouse liver microsomes. Conditions: mouse liver microsomes. The format is in vitro ADME, mouse (CD-1). On the procedure:
as §3, §4

Data set [8] in a line: Metabolic stability (intrinsic clearance) in dog liver microsomes. The format is in vitro ADME, dog (Beagle). The conditions noted are these: dog liver microsomes. On the procedure:
as §3, §4

On the set-up of data set [9]: method as in PMID 16751263. The conditions noted are these: rat, single IV doses ranging from 0.3 to 4 mg/kg; cited from earlier work.
Setting [10] is: FTY720-Mitoxy incubation, Table 5.
Setting [11] is: human hepatocytes, listed as FTY720-Mitoxy C6-COOH.
Where [12] appears, read: rat hepatocytes, listed as FTY720-Mitoxy C6-COOH.
Setting [13] is: human hepatocytes, listed as FTY720-C2 C8-COOH.
Where [14] appears, read: rat hepatocytes, listed as FTY720-C2 C8-COOH.

SMILES strings stand for the structures. Read-outs that look alike come from different tables or passages of the source.

On to `CC(=O)NC(CO)(CO)CCc1ccc(CCCC(=O)O)cc1` [FTY720-C2 C4-carboxylic acid], for which the “Source (peak identified in human hepatocytes)” value in data set [1] (FTY720-C2 incubation, Table 4) was “H”. For the same compound, in data set [1] (human hepatocytes), the “Percent Distribution (1 hr incubation) Human” value worked out at 23.7% and the “Percent Distribution (2 hr incubation) Human” value was 25.57%. Also, the “Source (peak identified in rat hepatocytes)” value in [2] (FTY720-C2 incubation, Table 4) is “R”. Moreover, in data set [2] (rat hepatocytes), the “Percent Distribution (1 hr incubation) Rat” value stood at 9.7% and the “Percent Distribution (2 hr incubation) Rat” value is 12.88%.

`O=C(O)CCCCCCCc1ccc(CCC(CO)(CO)NC(=O)CC[P+](c2ccccc2)(c2ccccc2)c2ccccc2)cc1` [FTY720-Mitoxy C8-carboxylic acid]: the “Source (peak identified in human hepatocytes)” value in data set [1] (setting [10]) is recorded as “H”. For the same compound, in data set [1] (human hepatocytes), the “Percent Distribution (1 hr incubation) Human” value is given as 20.0% and the “Percent Distribution (2 hr incubation) Human” value was 27.3%. Moreover, in data set [2] (setting [10]), the “Source (peak identified in rat hepatocytes)” value is reported as “R”. In data set [2] (rat hepatocytes), the “Percent Distribution (1 hr incubation) Rat” value turned out to be 4.4% and the “Percent Distribution (2 hr incubation) Rat” value is recorded as 3.4%.

Consider `O=C(O)CCCCCc1ccc(CCC(CO)(CO)NC(=O)CC[P+](c2ccccc2)(c2ccccc2)c2ccccc2)cc1` [FTY720-Mitoxy C6-carboxylic acid], for which, in [1] (setting [10]), the “Source (peak identified in human hepatocytes)” value is listed as “H”. For the same compound, the “Percent Distribution (1 hr incubation) Human” value in [1] (human hepatocytes) stood at 58.6%; in [1] (setting [11]), 59%. In addition, the figures for the “Percent Distribution (2 hr incubation) Human” value in [1] (human hepatocytes) and in data set [1] (setting [11]) were 54.8% and 55%, respectively. Besides, in [2] (setting [10]), the “Source (peak identified in rat hepatocytes)” value was “R”. The “Percent Distribution (1 hr incubation) Rat” value in data set [2] (rat hepatocytes) is reported as 83.6%; in data set [2] (setting [12]) it was 84%. Further, the “Percent Distribution (2 hr incubation) Rat” value in [2] (rat hepatocytes) was 79.3%; in data set [2] (setting [12]), 79%.

Take `CCCCCCCCc1ccc(CCC(N)(CO)CO)cc1` [FTY720, Fingolimod]: the “intrinsic clearance interpreted in words” value in data set [3] was “slow and low”; in data set [5], “slow and low”; in [6], “slow and low”; in data set [7], “slow and low”; in [8] it was “slow and low”. In addition, the elimination half-life result in data set [4] (after oral dosing) was “about 7 days”. Moreover, the values for the half-life in data set [4] (single oral doses of 1 mg) and in data set [9] were ~ 7 days and ~ 20 hr, respectively. The phosphorylated metabolites entry in data set [1] (human hepatocytes) and in [2] (rat hepatocytes) was “identified” each time.

Regarding `CC(=O)NC(CO)(CO)CCc1ccc(CC(=O)O)cc1` [FTY720-C2 C2-carboxylic acid], the “Source (peak identified in human hepatocytes)” value in data set [1] (FTY720-C2 incubation, Table 4) is “H”. Besides, in [1] (human hepatocytes), the “Percent Distribution (1 hr incubation) Human” value is given as 3.2% and the “Percent Distribution (2 hr incubation) Human” value came to 7.21%. Moreover, the “Source (peak identified in rat hepatocytes)” value in [2] (FTY720-C2 incubation, Table 4) is given as “R”. Also, in [2] (rat hepatocytes), the “Percent Distribution (1 hr incubation) Rat” value is recorded as 21.4% and the “Percent Distribution (2 hr incubation) Rat” value is on record as 35.72%.

On to `CC(=O)NC(CO)(CO)CCc1ccc(CCCCCCCC(=O)O)cc1` [FTY720-C2 C8-carboxylic acid], for which the “Source (peak identified in human hepatocytes)” value in data set [1] (FTY720-C2 incubation, Table 4) is given as “H”. In addition, the “Percent Distribution (1 hr incubation) Human” value in [1] (human hepatocytes) is 49.0%; in data set [1] (setting [13]), 49%. The “Percent Distribution (2 hr incubation) Human” value in data set [1] (human hepatocytes) was determined as 52.13%; in data set [1] (setting [13]), 52%. Further, the “Source (peak identified in rat hepatocytes)” value in data set [2] (FTY720-C2 incubation, Table 4) was “R”. Also, the “Percent Distribution (1 hr incubation) Rat” value turned out to be 37.0% in data set [2] (rat hepatocytes) and 37% in [2] (setting [14]). The “Percent Distribution (2 hr incubation) Rat” value in data set [2] (rat hepatocytes) is 39.37%; in data set [2] (setting [14]) it was 39%.

The values above are taken from article PMC5017749, “Preclinical Metabolism, Pharmacokinetics and In Vivo Analysis of New Blood-Brain-Barrier Penetrant Fingolimod Analogues: FTY720-C2 and FTY720-Mitoxy” (PLoS ONE, 2016).
